Data from patent US11413278B2, “Compounds and methods for promoting stress resistance” (priority 2015, dated 2022).
“Also recorded” adds a separate entry of the source. Where two headings read alike, the source gives them in different places.

How the values were obtained:
WI-38 cells [1] = assay: Propidium iodide (PI) cell-death imaging upon H2O2 stress; format: cell-based, human; settings: for Assay 7: H2O2-resistant, at 10 uM, validated by propidium iodide (PI) cell-death imaging: w/H2O2, 3 hrs/4 hrs/5 hrs, YES/NO; for cytotoxicity at 10 µM: Homo sapiens, WI-38
[2] = tested on: human dermal fibroblast (HDF) primary cells; assay: H2O2-resistance in primary human dermal fibroblasts; format: cell-based; settings: for fold induction at 10 µM: Homo sapiens; for Assay 6: H2O2-resistant, at 10 uM, human dermal fibroblast (HDF) primary cells: YES/NO
FOXO3 = assay: qPCR analysis of FOXO3-regulated genes; format: cell-based, human; settings: for fold induction at 10 µM: Homo sapiens; for K = Sestrin induction: score
Summary of the method: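 WI-38 cells treated with compound at 10 μM for 24 h, followed by Cells-to-Ct RT-qPCR of FOXO3 target genes normalised to B2M, PPIA and GAPDH. FOXO3 or NRF2 dependence tested by prior 10 nM siRNA knockdown (36 h transfection, compound added ~24 h after replating).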

C. elegans = format: in vivo, Caenorhabditis elegans; settings: in vivo
Experimental: The worms were treated with the small molecules in liquid, with H2O2 (500 μM final concentration) added on day 4 of adulthood, and scored for viability everyday
FUdR was used to block progeny production. The molecules were analyzed in 96-well plates, with 4 wells for each small molecule. Multiple control wells with DMSO (0.2% final concentration) were included. […] Day 1 adults were transferred onto mini-plates, seeded with OP50 bacteria (UV-irradiated, kanamycin-treated) and supplemented with small molecules (˜60 μM final concentration, 0.2% DMSO). Worms were scored every other day. Cumulative survival was analyzed using the STATA software (log-rank test). […] The worms were treated with the small molecules in liquid, with H2O2 (500 μM final concentration) added on day 4 of adulthood, and scored for viability every day.

[3] = Summary score for characterization of 38 core set hits; settings: for D = Triple resistant: 2-point score, multiplex resistance (cadmium, MMS, H2O2); for S = Sum of Negative scores: human; for C = H2O2- & Cd-resistant: score, resistance to both H2O2 and cadmium
Experimental: 38 “core set” small molecules are listed and are assigned a score, based on the result for each individual characterization. From our small molecule screen for H2O2-resistance, we isolated 61 top hits. […] Specifically, a 2-point score was assigned to the most well-known and prominent longevity-related phenotypes, such as multiplex resistance, activation of FOXO3 and/or NRF2, and down-regulation of mTOR. Small molecules were also analyzed for their ability to extend C. elegans' lifespan in 4 to 6 independent trials, and the lifespan score scale is from 0 to 2: 0 for no obvious effects, 1 for lifespan extension observed in 2 trials, 2 for observed in more than 2 trials. Certain molecules appeared to have DNA-damaging effects and/or potential cell-toxicity in cultured human cells, and they receive a negative point.

WI-38 cells [4] = settings: for No H2O2 stress treatment, at 10 uM (fold change): normalized ATP measurement
[5] = H2O2 3 hrs, 10 uM, n = 6, negative control 5.44% ± 0.79%, read-out: Percentage of propidium iodide-positive dead cells (under H2O2 stress treatment), 3 hrs
[6] = H2O2 4 hrs, 10 uM, n = 6, negative control 16.81% ± 1.42%, read-out: Percentage of propidium iodide-positive dead cells (under H2O2 stress treatment), 4 hrs
[7] = H2O2 5 hrs, 10 uM, n = 6, negative control 22.50% ± 1.53%, read-out: Percentage of propidium iodide-positive dead cells (under H2O2 stress treatment), 5 hrs
[8] = pre-treatment at 10 uM, 3.5 hours of H2O2, DMSO control 27.4% ± 6.5%, */**/*** = reduced by one/two/three standard deviations, read-out: Percentage of propidium iodide-positive dead cells (under H2O2 stress treatment), at 10 uM
[9] = Experiment 1, HDF cells, read-out: Experiment 1, HDF cells (under H2O2 stress treatment), at 10 uM (fold change)
[10] = Experiment 2, HDF cells, read-out: Experiment 2, HDF cells (under H2O2 stress treatment), at 10 uM (fold change)
[11] = 24 h, Assay 10(m), at 10 uM, qPCR, read-out: Induction of FOXO3-regulated genes: SESN1 normalized fold-change
[12] = 10 μM, 24 hrs, WI-38 cells, qPCR, normalized to B2M, n = 4, read-out: SESN1 expression, normalized fold change (FOXO3-regulated gene)
[13] = WI-38 cells, 10 μM, 24 hrs, n=4, qPCR normalized by B2M, read-out: DDB1 Normalized fold change
[14] = WI-38 cells, 10 μM, 24 hrs, n=4, qPCR normalized by B2M, read-out: GADD45A Normalized fold change
[15] = WI-38 cells, 10 μM, 24 hrs, n=4, qPCR normalized by B2M, read-out: SESN1 Normalized fold change
[16] = fold change, qPCR, WI-38 cells, 10 μM, 24 hrs, read-out: Summary of effects on FOXO3-regulated genes: SESN1
[17] = qPCR, WI-38 cells, 10 μM, n=4, 24 hrs, normalized by B2M, read-out: CAT Normalized fold change
[18] = qPCR, WI-38 cells, 10 μM, n=4, 24 hrs, normalized by B2M, read-out: SOD2 Normalized fold change
[19] = qPCR, WI-38 cells, 10 μM, n=4, 24 hrs, normalized by B2M, read-out: TXNIP Normalized fold change
[20] = WI-38 cells, 10 μM, (*) = compromised ability to protect cells from H2O2, could be due to stability issue
[21] = asterisks indicate the loss of the ability to protect cells from H2O2 over time
[22] = derived from dose response curves, 0.6-20 uM, H2O2-resistance of WI-38 cells
[23] = read-out: Est. ED50, dose response 0.6-20 μM, H2O2-resistance

Compound | Assay 7: H2O2-resistant, at 10 uM, validated by propidium iodide (PI) cell-death imaging (WI-38 cells [1]; 10 uM) | cytotoxicity at 10 µM (WI-38 cells [1]; [5]) | cytotoxicity at 10 µM (WI-38 cells [1]; [6]) | cytotoxicity at 10 µM (WI-38 cells [1]; [7]) | cytotoxicity at 10 µM (WI-38 cells [1]; [8]) | fold induction at 10 µM [2, 9] | fold induction at 10 µM [2, 10] | Assay 6: H2O2-resistant, at 10 uM, human dermal fibroblast (HDF) primary cells [2] | E = Potential FOXO3 Activation (FOXO3; 2-point score) | fold induction at 10 µM (FOXO3; [11]) | fold induction at 10 µM (FOXO3; [12]) | fold induction at 10 µM (FOXO3; [13]) | fold induction at 10 µM (FOXO3; [14]) | fold induction at 10 µM (FOXO3; [15]) | fold induction at 10 µM (FOXO3; [16]) | fold induction at 10 µM (FOXO3; [17]) | fold induction at 10 µM (FOXO3; [18]) | fold induction at 10 µM (FOXO3; [19]) | K = Sestrin induction (FOXO3) | E = Potential FOXO3 Activation (FOXO3; summary score) | also measured
NS(=O)(=O)c1ccc(NC(=O)c2ccc([N+](=O)[O-])o2)cc1 [Gr-1A] | YES | 1.44% | 3.18% | 7.49% | 22.6% | 3.89 | 52.5 | YES | 0 | 1.93 | 2.12 | 1.35 | 1.27 | 2.12 | 2.12 | 1.31 | 1.5 | 1.23 | 1 | 0 | Induction of at least two of five FOXO3-regulated genes (SOD2, GADD45A, CAT, DDB1, TXNIP) (FOXO3; 10 μM, 24 hrs, WI-38): significant induction; also recorded: significant, induction; also recorded: induce FOXO3-regulated genes; fold induction at 10 µM (FOXO3; 24 h, Assay 10(m), at 10 uM, qPCR, read-out: Induction of FOXO3-regulated genes: CAT normalized fold-change): 1.36; fold induction at 10 µM (FOXO3; 24 h, Assay 10(m), at 10 uM, qPCR, read-out: Induction of FOXO3-regulated genes: DDB1 normalized fold-change): 1.16; fold induction at 10 µM (FOXO3; WI-38, 24 h, read-out: SESN1 expression): > 1.5; fold induction at 10 µM (FOXO3; 10 μM, 24 hrs, WI-38 cells, qPCR, normalized to B2M, n = 4, read-out: CAT expression, normalized fold change (FOXO3-regulated gene)): 1.31; fold induction at 10 µM (FOXO3; 10 μM, 24 hrs, WI-38 cells, qPCR, normalized to B2M, n = 4, read-out: DDB1 expression, normalized fold change (FOXO3-regulated gene)): 1.36; fold induction at 10 µM (FOXO3; fold change, qPCR, WI-38 cells, 10 μM, 24 hrs, read-out: Summary of effects on FOXO3-regulated genes: CAT): 1.31; fold induction at 10 µM (FOXO3; fold change, qPCR, WI-38 cells, 10 μM, 24 hrs, read-out: Summary of effects on FOXO3-regulated genes: DDB1): 1.36; H2O2-resistance assay, 1st experiment (C. elegans): YES;; L = H2O2-resistance in worms (C. elegans): 0; N = H2O2-resistance in woms (C. elegans): 0; D = Triple resistant [3]: 0; S = Sum of Negative scores [3]: 1; C = H2O2- & Cd-resistant [3]: 1; H2O2-resistant (WI-38 cells [4]; [20]): YES; No H2O2 stress treatment, at 10 uM (fold change) (WI-38 cells [4]; WI-38 cells): 0.72 fold change; Assay 1: H2O2-resistant (WI-38 cells [4]; YES/NO, if NO, possibly due to repeated freezing/thawing of stocks): YES; H2O2-resistant (WI-38 cells [4]; [21]): YES; EC50 (WI-38 cells [4]; [22]): 6 µM; EC50 (WI-38 cells [4]; [23]): 2.53 µM
N=C1S/C(=C\c2cn(-c3ccccc3)nc2-c2cccs2)C(=O)N1c1nccs1 [Gr-6C] | YES | 1.17% | 1.39% | 6.12% | 7.9% | 0.01 | 50.6 | YES | 0 | 1.42 | 1.42 | 1.22 | 2.17 | 1.42 | 1.42 | 1.13 | 1.01 | 0.568 | 0 | 0 | fold induction at 10 µM (FOXO3; 24 h, Assay 10(m), at 10 uM, qPCR, read-out: Induction of FOXO3-regulated genes: TXNIP normalized fold-change): 0.57; fold induction at 10 µM (FOXO3; 10 μM, 24 hrs, WI-38 cells, qPCR, normalized to B2M, n = 4, read-out: GADD45A expression, normalized fold change (FOXO3-regulated gene)): 2.17; fold induction at 10 µM (FOXO3; 10 μM, 24 hrs, WI-38 cells, qPCR, normalized to B2M, n = 4, read-out: TXNIP expression, normalized fold change (FOXO3-regulated gene)): 0.57; fold induction at 10 µM (FOXO3; fold change, qPCR, WI-38 cells, 10 μM, 24 hrs, read-out: Summary of effects on FOXO3-regulated genes: GADD45A): 2.17; fold induction at 10 µM (FOXO3; fold change, qPCR, WI-38 cells, 10 μM, 24 hrs, read-out: Summary of effects on FOXO3-regulated genes: TXNIP): 0.57; L = H2O2-resistance in worms (C. elegans): 0; N = H2O2-resistance in woms (C. elegans): 0; D = Triple resistant [3]: 0; S = Sum of Negative scores [3]: 2; C = H2O2- & Cd-resistant [3]: 0; H2O2-resistant (WI-38 cells [4]; [20]): YES (*); No H2O2 stress treatment, at 10 uM (fold change) (WI-38 cells [4]; WI-38 cells): .096 fold change; H2O2-resistant (WI-38 cells [4]; [21]): YES (*); EC50 (WI-38 cells [4]; [22]): 16.2 µM; EC50 (WI-38 cells [4]; [23]): 48.5 µM
